Data published in ChEMBL document CHEMBL2021863, “Design and synthesis of new 4-pyrazolin-3-yl-1,2,3-triazoles and 1,2,3-triazol-4-yl-pyrazolin-1-ylthiazoles as potential antimicrobial agents” (2012).
Converted amounts (≈) assume the structure as drawn.

Tests used:
[1] = system: Priestia megaterium; assay: Antimicrobial activity against Bacillus megaterium ATCC 9885 after 24 hrs by two-fold serial dilution method; type: functional; conditions: ATCC 9885, 24 h
[2] = system: Pseudomonas aeruginosa; assay: Antimicrobial activity against Pseudomonas aeruginosa ATCC 27953 at 100 ug/ml after 24 hrs by agar well diffusion assay; type: functional; conditions: ATCC 27953, 24 h, read-out: DIZ
[3] = system: Klebsiella pneumoniae; assay: Antimicrobial activity against Klebsiella pneumoniae ATCC 13883 at 100 ug/ml after 24 hrs by agar well diffusion assay; type: functional; conditions: ATCC 13883, 24 h, read-out: DIZ
[4] = system: Priestia megaterium; assay: Antimicrobial activity against Bacillus megaterium ATCC 9885 at 100 ug/ml after 24 hrs by agar well diffusion assay; type: functional; conditions: ATCC 9885, 24 h, read-out: DIZ
[5] = system: Escherichia coli; assay: Antimicrobial activity against Escherichia coli ATCC 25922 at 100 ug/ml after 24 hrs by agar well diffusion assay; type: functional; conditions: ATCC 25922, 24 h, read-out: DIZ
[6] = system: Escherichia coli; assay: Antimicrobial activity against Escherichia coli ATCC 25922 after 24 hrs by two-fold serial dilution method; type: functional; conditions: ATCC 25922, 24 h
[7] = system: Saccharomyces cerevisiae; assay: Antifungal activity against Saccharomyces cerevisiae at 100 ug/ml after 24 hrs by agar well diffusion assay; type: functional; conditions: read-out: DIZ
[8] = system: Bacillus subtilis; assay: Antimicrobial activity against Bacillus subtilis ATCC 6633 at 100 ug/ml after 24 hrs by agar well diffusion assay; type: functional; conditions: ATCC 6633, 24 h, read-out: DIZ
[9] = system: Klebsiella pneumoniae; assay: Antimicrobial activity against Klebsiella pneumoniae ATCC 13883 after 24 hrs by two-fold serial dilution method; type: functional; conditions: ATCC 13883, 24 h
[10] = system: Candida albicans; assay: Antifungal activity against Candida albicans NRRL Y-477 by two-fold serial dilution method; type: functional
[11] = system: Staphylococcus aureus; assay: Antimicrobial activity against Staphylococcus aureus ATCC 29213 after 24 hrs by two-fold serial dilution method; type: functional; conditions: ATCC 29213, 24 h
[12] = system: Saccharomyces cerevisiae; assay: Antifungal activity against Saccharomyces cerevisiae by two-fold serial dilution method; type: functional
[13] = system: Pseudomonas aeruginosa; assay: Antimicrobial activity against Pseudomonas aeruginosa ATCC 27953 after 24 hrs by two-fold serial dilution method; type: functional; conditions: ATCC 27953, 24 h
[14] = system: Micrococcus luteus; assay: Antimicrobial activity against Sarcina lutea at 100 ug/ml after 24 hrs by agar well diffusion assay; type: functional; conditions: read-out: DIZ
[15] = system: Candida albicans; assay: Antifungal activity against Candida albicans NRRL Y-477 at 100 ug/ml after 24 hrs by agar well diffusion assay; type: functional; conditions: NRRL Y-477, 24 h, read-out: DIZ
[16] = system: Bacillus subtilis; assay: Antimicrobial activity against Bacillus subtilis ATCC 6633 after 24 hrs by two-fold serial dilution method; type: functional; conditions: ATCC 6633, 24 h
[17] = system: Micrococcus luteus; assay: Antimicrobial activity against Sarcina lutea after 24 hrs by two-fold serial dilution method; type: functional
[18] = system: Staphylococcus aureus; assay: Antimicrobial activity against Staphylococcus aureus ATCC 29213 at 100 ug/ml after 24 hrs by agar well diffusion assay; type: functional; conditions: ATCC 29213, 24 h, read-out: DIZ
[19] = system: Bacillus subtilis; assay: microbe, parasite or virus in culture; conditions: ATCC 6633, 24 h, read-out: DIZ
Description: Antimicrobial activity against Bacillus subtilis ATCC 6633 at 50 ug/ml after 24 hrs by agar well diffusion assay

[20] = system: Staphylococcus aureus; assay: microbe, parasite or virus in culture; conditions: ATCC 29213, 24 h, read-out: DIZ
Description: Antimicrobial activity against Staphylococcus aureus ATCC 29213 at 50 ug/ml after 24 hrs by agar well diffusion assay

[21] = system: Micrococcus luteus; assay: Antimicrobial activity against Sarcina lutea at 50 ug/ml after 24 hrs by agar well diffusion assay; type: functional; conditions: read-out: DIZ
[22] = system: Pseudomonas aeruginosa; assay: microbe, parasite or virus in culture; conditions: ATCC 27953, 24 h, read-out: DIZ
Description: Antimicrobial activity against Pseudomonas aeruginosa ATCC 27953 at 50 ug/ml after 24 hrs by agar well diffusion assay

[23] = system: Priestia megaterium; assay: Antimicrobial activity against Bacillus megaterium ATCC 9885 at 50 ug/ml after 24 hrs by agar well diffusion assay; type: functional; conditions: ATCC 9885, 24 h, read-out: DIZ
[24] = system: Klebsiella pneumoniae; assay: microbe, parasite or virus in culture; conditions: ATCC 13883, 24 h, read-out: DIZ
Description: Antimicrobial activity against Klebsiella pneumoniae ATCC 13883 at 50 ug/ml after 24 hrs by agar well diffusion assay

[25] = system: Saccharomyces cerevisiae; assay: Antifungal activity against Saccharomyces cerevisiae at 50 ug/ml after 24 hrs by agar well diffusion assay; type: functional; conditions: read-out: DIZ
[26] = system: Candida albicans; assay: Antifungal activity against Candida albicans NRRL Y-477 at 50 ug/ml after 24 hrs by agar well diffusion assay; type: functional; conditions: NRRL Y-477, 24 h, read-out: DIZ

Compound | MIC [1] [µg/mL] | MIC [6] [µg/mL] | MIC [9] [µg/mL] | MIC [10] [µg/mL] | MIC [11] [µg/mL] | MIC [12] [µg/mL] | MIC [13] [µg/mL] | MIC [16] [µg/mL] | MIC [17] [µg/mL] | further results
Cc1ccc(-n2nnc(C3=NN(c4nc(-c5ccccc5)cs4)C(c4ccc(F)cc4)C3)c2C)cc1 (stereo not given) | 33 (≈ 66.7 µM) | 132 (≈ 267 µM) | 33 (≈ 66.7 µM) | 66 (≈ 133 µM) | 16.5 (≈ 33.4 µM) | 33 (≈ 66.7 µM) | 8.25 (≈ 16.7 µM) | 33 (≈ 66.7 µM) | 66 (≈ 133 µM) | zone of inhibition at 100 µg/mL [2]: 28 mm; zone of inhibition at 100 µg/mL [3]: 26 mm; zone of inhibition at 100 µg/mL [4]: 24 mm; zone of inhibition at 100 µg/mL [5]: 16 mm; zone of inhibition at 100 µg/mL [7]: 22 mm; zone of inhibition at 100 µg/mL [8]: 24 mm; zone of inhibition at 100 µg/mL [14]: 22 mm; zone of inhibition at 100 µg/mL [15]: 20 mm; zone of inhibition at 100 µg/mL [18]: 26 mm
O=C(O)c1cn(C2CC2)c2cc(N3CCNCC3)c(F)cc2c1=O [CIPROFLOXACIN] | 8.25 (≈ 24.9 µM) | 16.5 (≈ 49.8 µM) | 16.5 (≈ 49.8 µM) |  | 8.25 (≈ 24.9 µM) |  | 16.5 (≈ 49.8 µM) | 8.25 (≈ 24.9 µM) | 16.5 (≈ 49.8 µM) | zone of inhibition at 50 µg/mL [19]: 22 mm; zone of inhibition at 50 µg/mL [20]: 20 mm; zone of inhibition at 50 µg/mL [21]: 20 mm; zone of inhibition at 50 µg/mL [22]: 24 mm; zone of inhibition at 50 µg/mL [23]: 24 mm; zone of inhibition at 50 µg/mL [24]: 25 mm
CC(=O)N1CCN(c2ccc(OCC3COC(Cn4ccnc4)(c4ccc(Cl)cc4Cl)O3)cc2)CC1 (stereo not given) [KETOCONAZOLE] |  |  |  | 8.25 (≈ 15.5 µM) |  | 8.25 (≈ 15.5 µM) |  |  |  | zone of inhibition at 50 µg/mL [25]: 23 mm; zone of inhibition at 50 µg/mL [26]: 22 mm
